According to patent US20240416143A1, “PHOTONIC ANTIMICROBIAL WOUND SURFACE DRESSING” (The General Hospital Corporation, priority 2021, published 2024):

Experiments:
E. coli biofilm = test: Photoinactivation of 48-hour in vitro biofilms by adjuvant/antibiotic + antimicrobial blue light; assay type: cell-based, Escherichia coli
Protocol: (§1) The bacterial suspension was grown in a shaking incubator overnight in BHI broth. Cells were collected by centrifugation at 4,000 rpm for 5 minutes and suspended in PBS at a density of 10^6 CFU/mL. Then, the biofilms were grown for 48 hours (unless otherwise specified) in 96-well microtiter plates as described previously [Ref. 27], with a renewal of the media every 24 hours. Following the 48-hour biofilm growth, fresh 200 μL of PBS with or without menadione in different concentrations were added to the wells and the biofilms were incubated in the dark at 25° C. for 1 hour: 0, 0.5, 1, and 2 μg/mL for MRSA USA300, AF0001, IQ0064; 0, 1, 10, 30 and 50 μg/mL for P. aeruginosa PA01; and 0, 100, and 150 μg/mL for E. coli ATCC 25922. After that, the control and the menadione-treated biofilms were maintained without irradiation (“menadione/dark”). Simultaneously, the aBL was delivered to the other biofilm groups testing different power densities (50, 30, 15, and 10 mW/cm^2) while keeping the same radiant exposure of 250 J/cm^2. After the light exposure, the biofilms were carefully washed two times with PBS and 200 μL of PBS was added to each well. Then, the bacterial biofilms in each well were harvested by scratching with a sterile pipette tip and three wells of each group were pooled together in a 1.5 mL microcentrifuge tube. The total volume obtained, 600 μL (3 wells), was sonicated using a Branson 2510 Water Bath Sonicator (Marshall Scientific, LLC) for 5 minutes and the CFU was determined by 10-fold serial dilutions in PBS on BHI agar plates. CFU was counted after overnight incubation at 37° C. Experiments were performed in triplicate.
A bacterial suspension was grown in a shaking incubator overnight in BHI broth. Cells were collected by centrifugation at 4,000 rpm for 5 minutes and suspended in PBS at a density of 10^6 CFU/mL. Then, the biofilms were grown for 48 hours in 96-well microtiter plates with a renewal of the media every 24 hours. Following the 48-hour biofilm growth, fresh 200 μL of PBS with the tetracyclines minocycline, doxycycline, and demeclocycline in different concentrations were added to the wells and the biofilms were incubated in the dark at 25° C. for 1 hour: 0, 0.25, 0.5, and 1 μg/mL for minocycline; 0, 0.5, 1, and 2 μg/mL for doxycycline; and 0, 0.5, 1, and 2 for demeclocycline. After that, the control and the tetracycline-treated biofilms were maintained without irradiation (“menadione/dark”). […] The total volume obtained, 600 μL (3 wells), was sonicated using a Branson 2510 Water Bath Sonicator (Marshall Scientific, LLC) for 5 minutes and the CFU/mL was determined by 10-fold serial dilutions in PBS on BHI agar plates. CFU was counted after overnight incubation at 37° C.

MRSA biofilm = test: as above; assay type: cell-based, methicillin-resistant Staphylococcus aureus; conditions: for Bacterial Log10 CFU/mL Reduction after menadione + aBL: MRSA USA 300 biofilm 48 h
Protocol: as §1
A bacterial suspension was grown in a shaking incubator overnight in BHI broth. Cells were collected by centrifugation at 4,000 rpm for 5 minutes and suspended in PBS at a density of 10^6 CFU/mL. Then, the biofilms were grown for 48 hours in 96-well microtiter plates with a renewal of the media every 24 hours. Following the 48-hour biofilm growth, fresh 200 μL of PBS with the tetracyclines minocycline, doxycycline, and demeclocycline in different concentrations were added to the wells and the biofilms were incubated in the dark at 25° C. for 1 hour: 0, 0.25, 0.5, and 1 μg/mL for minocycline; 0, 0.5, 1, and 2 μg/mL for doxycycline; and 0, 0.5, 1, and 2 for demeclocycline. After that, the control and the tetracycline-treated biofilms were maintained without irradiation (“menadione/dark”). Simultaneously, the aBL (405 nm) was delivered to the other biofilm groups testing different power densities (50, 30 mW/cm^2) while keeping the radiant exposures of 50-250 J/cm^2. After the light exposure, the biofilms were carefully washed two times with PBS and 200 μL of PBS was added to each well. Then, the bacterial biofilms in each well were harvested by scratching with a sterile pipette tip and three wells of each group were pooled together in a 1.5 mL microcentrifuge tube. The total volume obtained, 600 μL (3 wells), was sonicated using a Branson 2510 Water Bath Sonicator (Marshall Scientific, LLC) for 5 minutes and the CFU/mL was determined by 10-fold serial dilutions in PBS on BHI agar plates. CFU was counted after overnight incubation at 37° C.

MRSA = test: Hydroxyl radical assay (HPF) in bacteria; assay type: cell-based, methicillin-resistant Staphylococcus aureus; conditions: 10 μg/mL menadione, 135 J/cm^2
Protocol: 1.2.9.3 Hydroxyl radical HO′ assay: The hydroxyl radical was measured by 3′-(p-hydroxyphenyl) fluorescein (HPF) (Thermofisher). HPF is a new fluorescein derivative, and it is nonfluorescent until reacted with the hydroxyl radical or peroxynitrite anion. The MRSA were grown in BHI broth medium with shaking overnight. Cells were collected by centrifugation at 4,000 rpm for 5 minutes and resuspended in PBS in the stationary growth phase culture of 1×10^8 CFU/mL. The microbial suspension was transferred to a 35×12-mm dish, mixed with 10 μg/mL of menadione, and stained with 10 μM HPF solution per the manufacturer's instruction. The bacteria were irradiated with the blue light at 50 mW/cm^2 and the samples were collected each 15 minutes to be analyzed by Microplate Spectrofluorometer (SPECTRAmax®, Molecular Devices, USA) at λex=490 nm and λem=515 nm. The control and the menadione/dark groups were generated under the same conditions without irradiation.

[1] = ROS probes (DCF-DA, SOSG, HPF) in the absence of bacteria
Protocol: 1.2.9.1 General ROS measured by […] (DCFH-DA) assay: DCF-DA was purchased from Thermofisher. […] The production of ROS by menadione when combined with blue light was measured in the presence and absence of bacteria. The bacteria (MRSA) was grown in BHI broth medium with shaking overnight. Cells were collected by centrifugation at 4,000 rpm for 5 minutes and resuspended in PBS in the stationary growth phase culture of 1×10^8 CFU/mL. The microbial suspension was transferred to a 35×12-mm dish, mixed with 10 μg/mL of menadione, and stained with 10 μM DCFH-DA solution per the manufacturer's instruction. The solutions (with and without bacteria) were irradiated with the blue light at 50 mW/cm^2 and the samples were collected every 15 minutes to be analyzed by Microplate Spectrofluorometer (SPECTRAmax®, Molecular Devices, USA) at λex=495 nm and λem=525 nm. The control and the menadione/dark groups were generated under the same conditions without irradiation.
To do so, the production of ROS by menadione combined with blue light was measured by different ROS probes, DCF-DA, SOSG and HPF, in the presence and absence of MRSA. […] Oxidation of these probes can be detected by monitoring the increasing of fluorescence signals. […]

Which “biofilm reduction by menadione without irradiation” value (E. coli biofilm; 48 h biofilm, dark) does the source give for `CC1=CC(=O)c2ccccc2C1=O` [menadione, 2-methyl-1,4-naphthoquinone] here?
Its value is under 1 log killing.

And the “biofilm eradicated by menadione plus aBL” value (E. coli biofilm; 48 h biofilm, 100 μg/mL menadione + aBL 250 J/cm^2 (50 mW/cm^2))?
Its value is 4.8 log10 CFU/mL.

What about the “enhancement of killing in comparison with aBL alone” value (E. coli biofilm; 48 h in vitro biofilm, menadione + aBL) of the same molecule?
The value was 1 log-fold.

What about the “biofilm reduction by menadione without irradiation” value (MRSA biofilm; 48 h biofilm, dark) of the same molecule?
The value was under 1 log killing.

And the “biofilm killed by menadione plus aBL” value (MRSA biofilm; 48 h biofilm, 1 μg/mL menadione + aBL 250 J/cm^2 (50 mW/cm^2))?
The value was 4.85 log10 CFU/mL.

And the “biofilm killed by menadione plus aBL” value (MRSA biofilm; 48 h biofilm, 1 μg/mL menadione + aBL 250 J/cm^2 at 15 mW/cm^2)?
The value was 3.01 log10 CFU/mL.

What about the “Bacterial Log10 CFU/mL Reduction after menadione + aBL” value (“Bacterial Log10 CFU/mL Reduction” below) (MRSA biofilm; 10 mW/cm^2, 250 J/cm^2, 6 hours 56 minutes) of the same molecule?
The value was −1.91 Log10 CFU/mL.

What about the “Bacterial Log10 CFU/mL Reduction” value (MRSA biofilm; 15 mW/cm^2, 250 J/cm^2, 4 hours 37 minutes) of the same molecule?
The value was −3.01 Log10 CFU/mL.

What about the “Bacterial Log10 CFU/mL Reduction” value (MRSA biofilm; 30 mW/cm^2, 250 J/cm^2, 2 hours 18 minutes) of the same molecule?
Its value is −2.28 Log10 CFU/mL.

And the “Bacterial Log10 CFU/mL Reduction” value (MRSA biofilm; 50 mW/cm^2, 250 J/cm^2, 1 hours 23 minutes)?
The value was −4.85 Log10 CFU/mL.

What about the “Bacterial Log10 CFU/mL Reduction” value (MRSA biofilm; power density 0 mW/cm^2) of the same molecule?
Its value is 0 Log10 CFU/mL.

What about the “hydroxyl radical (HPF), menadione+aBL vs aBL alone” value (MRSA) of the same molecule?
The value was 1.77 times.

What about the “fluorescence signal of ROS probes, menadione exposed to blue light” value ([1]; 405 nm, DCF-DA, SOSG, HPF) of the same molecule?
Its value is “higher fluorescence signal”.

And the “fluorescence signal of ROS probes, menadione dark group” value ([1]; no irradiation)?
The value was “negligible”.
